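Following 48 hours of exposure in 96-well plates, responses at five concentrations were used to interpolate endpoints linearly. GI50 is the concentration that inhibits growth by half. The concentration for full growth arrest is given as TGI.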

Some test systems named below: T-47D breast; OVCAR-4 ovarian; MALME-3M melanoma; NCI-H226 lung; SW-620 colon; RPMI-8226 leukemia; TK-10 renal; MOLT-4 leukemia.
What all share (assay): NCI-60 cell line screen, 48 h

Consider `CC1(C)CCC(S(=O)(=O)c2ccc3c(c2)/C(=N\O)c2cc(S(=O)(=O)N4CCC(O)(c5cccc(C(F)(F)F)c5)CC4)ccc2-3)CC1`, for which the GI50 with T-47D breast is 0.0192 µM; in the test with OVCAR-4 ovarian, 0.0251 µM; in the test on MALME-3M melanoma it was 0.0216 µM; in the test with NCI-H226 lung, 0.0292 µM; in the test with SW-620 colon, 0.0154 µM; with RPMI-8226 leukemia, 0.0255 µM. Moreover, the GI50 is 0.0441 µM in the test on TK-10 renal and 0.0199 µM in the test on MOLT-4 leukemia. Besides, the TGI with T-47D breast was determined as 0.0414 µM; in the test on OVCAR-4 ovarian, 0.0744 µM; with MALME-3M melanoma it was 0.053 µM; with NCI-H226 lung it was 0.0988 µM; in the test on SW-620 colon, 0.0319 µM; in the test on RPMI-8226 leukemia, 0.09 µM. Further, the TGI in the test with TK-10 renal is 0.393 µM; with MOLT-4 leukemia it was 0.0444 µM.

Regarding `COc1ccc2c(c1)C(=O)c1c-2c(NCCCN(C)C)nc2ccccc12`, the GI50 was 17.8 µM with T-47D breast; 0.898 µM in the test on OVCAR-4 ovarian; 3.86 µM in the test with MALME-3M melanoma; 11.6 µM in the test with NCI-H226 lung; 1.45 µM in the test with SW-620 colon; 1.93 µM in the test on RPMI-8226 leukemia. Further, the GI50 in the test on TK-10 renal is 4.33 µM; in the test with MOLT-4 leukemia, 1.43 µM. Also, the TGI in the test on T-47D breast was found to be 34.2 µM; in the test with OVCAR-4 ovarian, 16.4 µM; in the test with MALME-3M melanoma, 15.5 µM; in the test on NCI-H226 lung, 24 µM; with SW-620 colon, 2.99 µM; in the test on RPMI-8226 leukemia, 4.39 µM. Further, the TGI in the test with TK-10 renal stood at 18.3 µM; in the test with MOLT-4 leukemia, 11.1 µM.

Consider `COCCNCC(O)Cn1c2ccc(Cl)cc2c2cc(Cl)ccc21` (centres undefined), for which the GI50 was 1.97 µM in the test on T-47D breast; 2.01 µM in the test with OVCAR-4 ovarian; 1.98 µM with MALME-3M melanoma; 2.25 µM in the test on NCI-H226 lung; 1.83 µM in the test on SW-620 colon; 2.14 µM with RPMI-8226 leukemia. For the same molecule, the figures for the GI50 in the test with TK-10 renal and in the test with MOLT-4 leukemia were 1.79 µM and 1.97 µM, respectively. Moreover, the TGI worked out at 4.03 µM with T-47D breast; 5.2 µM with OVCAR-4 ovarian; 3.89 µM in the test on MALME-3M melanoma; 5.92 µM with NCI-H226 lung; 3.64 µM in the test with SW-620 colon; 5.25 µM in the test on RPMI-8226 leukemia. Further, the TGI is 3.37 µM with TK-10 renal and 4.05 µM in the test with MOLT-4 leukemia.

For the molecule `O=C(NNc1nc2cc(F)ccc2n2c(CN3CCOCC3)ccc12)c1ccccc1`, the GI50 is 0.36 µM with T-47D breast; 0.152 µM with OVCAR-4 ovarian; 0.379 µM in the test on MALME-3M melanoma; 0.45 µM in the test on NCI-H226 lung; 0.33 µM in the test with SW-620 colon; 0.263 µM with RPMI-8226 leukemia. The GI50 in the test with TK-10 renal was 0.276 µM; with MOLT-4 leukemia it was 0.175 µM. Further, the TGI in the test with T-47D breast worked out at 2.24 µM; in the test with OVCAR-4 ovarian it was 1.39 µM; in the test on MALME-3M melanoma, 1.81 µM; in the test on NCI-H226 lung it was 2.4 µM; in the test with SW-620 colon it was 2.11 µM; in the test with RPMI-8226 leukemia, 2.6 µM. The TGI worked out at 7.07 µM in the test with TK-10 renal and 2.18 µM in the test with MOLT-4 leukemia.

As for `C=CC1CC12C(=O)C1OC2(C)C2C(=O)c3ccccc3C(=O)C12` (centres undefined), the GI50 with T-47D breast is 51.4 µM; with OVCAR-4 ovarian, 31.5 µM; with MALME-3M melanoma it was 21.3 µM; in the test on NCI-H226 lung, above 76.2 µM; with SW-620 colon, 45.3 µM; with RPMI-8226 leukemia, 28.2 µM. The GI50 with TK-10 renal is above 49.9 µM; in the test with MOLT-4 leukemia, 1.54 µM. Besides, the TGI in the test with T-47D breast is above 100 µM; with OVCAR-4 ovarian, above 100 µM; in the test with MALME-3M melanoma, 59.1 µM; with NCI-H226 lung, above 100 µM; in the test on SW-620 colon, above 100 µM; in the test with RPMI-8226 leukemia, 99.2 µM. In addition, the TGI was above 100 µM in the test with TK-10 renal and 11.1 µM with MOLT-4 leukemia.

In the case of `Brc1c[n+](Cc2ccc3ccccc3c2)cn1Cc1ccc2ccccc2c1`, the GI50 in the test on T-47D breast was 2.14 µM; in the test on OVCAR-4 ovarian it was 1.32 µM; in the test on MALME-3M melanoma it was 1.22 µM; in the test with NCI-H226 lung it was 2.24 µM; in the test with SW-620 colon, 1.61 µM; with RPMI-8226 leukemia, 1.02 µM. Moreover, the GI50 was 1.86 µM with TK-10 renal and 1.79 µM in the test with MOLT-4 leukemia. The TGI with T-47D breast turned out to be 7.2 µM; in the test on OVCAR-4 ovarian, 2.76 µM; in the test with MALME-3M melanoma it was 2.71 µM; in the test with NCI-H226 lung, 5.87 µM; with SW-620 colon it was 3.62 µM; in the test on RPMI-8226 leukemia, 3.06 µM. Further, the figures for the TGI in the test on TK-10 renal and in the test on MOLT-4 leukemia were 5.16 µM and 5.58 µM, respectively.

For the molecule `CN(C(=O)c1ccc(F)cc1C(F)(F)F)C1CCN(c2nnc(-c3ccnn3C)c3ccccc23)CC1`, the GI50 is 10.6 µM in the test on T-47D breast; 20.9 µM in the test on OVCAR-4 ovarian; 23.6 µM with MALME-3M melanoma; 28.2 µM with NCI-H226 lung; above 100 µM in the test on SW-620 colon; 19.1 µM in the test on RPMI-8226 leukemia. Moreover, the GI50 in the test with TK-10 renal is 65.6 µM; in the test with MOLT-4 leukemia it was 23.2 µM. Further, the TGI in the test with T-47D breast was 99.4 µM; with OVCAR-4 ovarian, above 100 µM; with MALME-3M melanoma it was above 100 µM; in the test with NCI-H226 lung, above 100 µM; in the test with SW-620 colon, above 100 µM; with RPMI-8226 leukemia, above 100 µM. Further, the figures for the TGI in the test with TK-10 renal and with MOLT-4 leukemia were above 100 µM and 68.8 µM, respectively.

On to `COc1cc(-c2c3c(cn2S(=O)(=O)c2ccccc2)-c2nc(N)sc2CC3)cc(OC)c1OC`, for which the GI50 with T-47D breast was 0.433 µM; in the test on OVCAR-4 ovarian it was 2.04 µM; in the test with MALME-3M melanoma, 0.449 µM; in the test on NCI-H226 lung it was 11.2 µM; in the test with SW-620 colon it was 0.39 µM; in the test on RPMI-8226 leukemia, 0.79 µM. Moreover, the GI50 in the test with TK-10 renal was 5.2 µM; with MOLT-4 leukemia, 0.701 µM. Moreover, the TGI is 20.6 µM in the test with T-47D breast; 32.3 µM in the test with OVCAR-4 ovarian; 38 µM in the test on MALME-3M melanoma; 47.4 µM in the test with NCI-H226 lung; above 100 µM in the test on SW-620 colon; 56 µM in the test with RPMI-8226 leukemia. For the same molecule, the values for the TGI in the test on TK-10 renal and with MOLT-4 leukemia were 30.1 µM and 43.1 µM, respectively.

Consider `O=C1Nc2ccc(Cl)cc2/C1=C\c1c(-c2ccc(F)cc2)nc2ccccn12`, for which the GI50 with T-47D breast is 4.35 µM; with OVCAR-4 ovarian, 2.3 µM; with MALME-3M melanoma, 3.8 µM; with NCI-H226 lung, 2.07 µM; in the test with SW-620 colon, 3 µM; in the test on RPMI-8226 leukemia it was 2.25 µM. In addition, the GI50 was 2.95 µM with TK-10 renal and 2.89 µM with MOLT-4 leukemia. Also, the TGI in the test on T-47D breast was 19.6 µM; in the test on OVCAR-4 ovarian, 7.23 µM; with MALME-3M melanoma, 14.8 µM; in the test on NCI-H226 lung it was 5.21 µM; in the test on SW-620 colon, 11.7 µM; in the test on RPMI-8226 leukemia, 7.86 µM. Besides, the TGI in the test on TK-10 renal is 7.39 µM; in the test with MOLT-4 leukemia it was 8.13 µM.
